Tests used:
[1] = target: T1, yIre1 (Saccharomyces cerevisiae, UniProt P32361); assay: RNase cleavage assay (yIre1 activation); format: biochemical, yeast; conditions: yIre1 RNA cleavage, 30° C., 2 mM ADP; Control (no inhibitor) 0.000504
T1 sequence (P32361 19-1115): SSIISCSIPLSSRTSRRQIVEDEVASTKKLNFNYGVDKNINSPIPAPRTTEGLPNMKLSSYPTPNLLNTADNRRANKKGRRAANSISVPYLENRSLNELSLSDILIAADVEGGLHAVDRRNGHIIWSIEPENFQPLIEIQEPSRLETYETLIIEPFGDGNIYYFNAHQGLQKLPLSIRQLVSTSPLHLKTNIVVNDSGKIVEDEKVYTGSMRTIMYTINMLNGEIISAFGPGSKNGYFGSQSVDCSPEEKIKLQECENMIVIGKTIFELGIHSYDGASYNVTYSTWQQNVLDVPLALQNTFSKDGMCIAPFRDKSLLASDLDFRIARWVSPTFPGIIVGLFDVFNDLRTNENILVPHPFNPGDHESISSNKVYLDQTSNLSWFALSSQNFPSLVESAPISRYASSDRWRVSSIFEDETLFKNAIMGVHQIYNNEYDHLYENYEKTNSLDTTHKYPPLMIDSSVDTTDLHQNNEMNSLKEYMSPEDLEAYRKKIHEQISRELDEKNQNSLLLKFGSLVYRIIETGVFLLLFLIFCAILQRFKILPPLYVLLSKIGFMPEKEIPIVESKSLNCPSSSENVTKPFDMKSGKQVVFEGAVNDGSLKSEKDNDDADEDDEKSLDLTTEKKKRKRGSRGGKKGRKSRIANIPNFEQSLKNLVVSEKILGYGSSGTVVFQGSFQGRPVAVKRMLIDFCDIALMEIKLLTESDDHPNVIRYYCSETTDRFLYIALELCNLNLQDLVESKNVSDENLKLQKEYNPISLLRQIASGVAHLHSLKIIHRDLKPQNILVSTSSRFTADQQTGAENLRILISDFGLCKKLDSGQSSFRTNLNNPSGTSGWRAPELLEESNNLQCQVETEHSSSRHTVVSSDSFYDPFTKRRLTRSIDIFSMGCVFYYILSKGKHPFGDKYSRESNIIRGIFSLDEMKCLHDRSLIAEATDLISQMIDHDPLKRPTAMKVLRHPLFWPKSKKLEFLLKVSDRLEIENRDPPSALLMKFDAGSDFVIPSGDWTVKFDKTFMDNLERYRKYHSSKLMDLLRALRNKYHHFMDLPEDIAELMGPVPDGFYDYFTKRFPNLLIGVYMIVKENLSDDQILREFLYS
Description: RNA cleavage reactions were conducted at 30° C. in buffer containing 20 mM HEPES (pH 7.5), 70 mM NaCl, 2 mM ADP (pH 7.0), 2 mM Mg(OAc)2, 5 mM DTT, 5% glycerol, less than 1 nM ^32p-labeled RNA substrate, and 3 nM-[…] Ire1. Reaction solutions and buffers were designed using Biochem Lab Solutions 3.5. Reactions were prepared such that 1 μl of RNA was added to 9 μl of pre-warmed reaction mixture containing all components except RNA. Typically, 3-10 minute time courses were collected starting from 5 seconds for the first time point. At time intervals, 1 μl of solution was withdrawn from each reaction and mixed with 6 μl stop solution containing 10 M urea, 0.1% SDS, 0.1 mM EDTA, 0.05% xylene cyanol, and 0.05% bromophenol blue. The samples were separated by a denaturing 10% PAGE and exposed on a phosphor storage screen. The screens were scanned on a Storm or a Typhoon instrument and quantified using ImageQuant 5.0 or GelQuant.NET 1.4 programs. The data were plotted and fit in SigmaPlot 6.0.

[2] = target: Recombinant human Ire1-alpha (Homo sapiens, UniProt O75460); assay: In vitro inhibition assay, cleavage of 32P-stem-loop RNA by human Ire1; format: biochemical; parameters: Ire1 activity with human Ire1 alpha: unit not given here; conditions: for Ire1 activity with human Ire1 alpha: RNA cleavage, 1 μM Ire1, 32P-labeled RNA, 30° C., Control (no inhibitor) 0.085; for Ire1 activity: in vitro cleavage of 32P-stem-loop RNA by human Ire1, AD series, Control (no inhibitor) 8.8310e−3
Description: Recombinant human […]) was mixed with reaction buffer, inhibitor solution in DMSO, and ^32P-labeled RNA substrate having sequence 5'-[…] NO:1). Reactions were conducted at 30° C. and initiated by adding the RNA to reaction pre-mix containing all the components minus the RNA. […] (The reaction mixture may be modified by using different components or concentrations, different RNA substrate, or different Ire1 protein construct.) At time intervals (0 seconds, 10 seconds, 30 seconds, and 3 minutes), 1 μl aliquots of reaction mixture were taken and quenched in 10 M Urea, 0.1% SDS. Samples were analyzed by denaturing polyacrylamide gel electrophoresis and quantified using Typhoon phosphorImager. […] Reactions with Irestatin and exemplary compounds were conducted analogously. Irestatin was a gift obtained from the SPECS screen available as 5 mM solution in DMSO at UCSF small molecule discovery center.

[3] = target: T2, yeast Ire1 (Saccharomyces cerevisiae, UniProt P32361); assay: In vitro inhibition assay, cleavage of 32P-labeled RNA by yeast Ire1; format: biochemical; conditions: for Ire1 activity with yeast Ire1: RNA cleavage, 32P-labeled RNA, 30° C., Control (no inhibitor) 0.1149
T2 sequence (P32361 19-1115): T1 sequence (P32361 19-1115)

[4] = target: hIre1 (Homo sapiens, UniProt O75460); assay: Titrations of Ire1 inhibitors to measure Ki using 1 μM hIre1; format: biochemical; conditions: 1 μM hIre1, 5′-32p-HP21, 30° C.
Description: Recombinant human Ire1-alpha (1 μM f/c) was mixed with reaction buffer, inhibitor solution in DMSO, and ^32P-labeled RNA substrate having sequence 5′-UGCACCUCUGCAGCAGGUGCA (SEQ ID NO:1). Reactions were conducted at 30° C. and initiated by adding the RNA to reaction pre-mix containing all the components minus the RNA. The final reaction contained: 20 mM HEPES pH 7, 70 mM NaCl, 2 mM MgCl2, 5% glycerol, 4 mM DTT, 10% DMSO, 1 μM Ire1 and <1 nM 32P-labeled RNA. (The reaction mixture may be modified by using different components or concentrations, different RNA substrate, or different Ire1 protein construct.)
At time intervals (0 seconds, ˜10 seconds, ˜30 seconds, and ˜3 minutes), 1 μl aliquots of reaction mixture were taken and quenched in 10 M Urea, 0.1% SDS. Samples were analyzed by denaturing polyacrylamide gel electrophoresis and quantified using Typhoon phosphorImager.
Inhibition was measured by the extent of RNA cleavage slowdown in the presence of inhibitor (0.3-100 μM) compared to reaction containing no inhibitors.

[5] = system: Ire1 (XBP-1 luciferase reporter in MEFS); assay: Cell-based IRE1 inhibition assay with mouse embryonic fibroblasts, XBP-1 luciferase reporter; conditions: compound 5 uM, 8 hrs
Description: FIG. 5 depicts histogram results of cell-based Ire1 inhibition assay in mouse embryonic fibroblasts (MEFS). Primary MEFS isolated from a transgenic mouse expressing an XBP1 luciferase reporter were incubated with either thapsigargin (Tg) or tunicamycin (Tm) in the absence or presence of test compound or control. See Example 5. Treatment order in histogram (left to right): no compound, AD73c at 5 uM, mitoxan (10 uM). Incubation conditions (left to right): DMSO, Tg (600 nM), Tm (2.6 ug/mL). Legend: RL: relative luminosity (arbitrary units); DMSO (no fill); Tg (diagonal stripe); Mitoxan (diamond fill).
A cell-based assay of Ire1 inhibition was conducted on mouse embryonic fibroblasts (MEFS) isolated from a transgenic mouse expressing an XBP-1 luciferase reporter (Riken Research, Japan). The XBP-1 luciferase reporter produces a frameshift and production of luciferase only after splicing of the intron by activated IRE1. […]
Primary MEFs expressing an XBP1 luciferase reporter were plated in a 96 well white plate and allowed to recover overnight (80% confluency). […] Luciferase activity was measured by the additional of 50 uL of One-Glo™ Luciferase Assay System (Promega), and the relative luminescence was quantitated using a luminometer (Analyst).
As depicted in the histogram of FIG. 5, the luminescence of luciferase expressed in Ire1-dependent assay was measured to assess Ire1 and UPR activity. […]

Chain of Recombinant human Ire1-alpha (O75460 19-977): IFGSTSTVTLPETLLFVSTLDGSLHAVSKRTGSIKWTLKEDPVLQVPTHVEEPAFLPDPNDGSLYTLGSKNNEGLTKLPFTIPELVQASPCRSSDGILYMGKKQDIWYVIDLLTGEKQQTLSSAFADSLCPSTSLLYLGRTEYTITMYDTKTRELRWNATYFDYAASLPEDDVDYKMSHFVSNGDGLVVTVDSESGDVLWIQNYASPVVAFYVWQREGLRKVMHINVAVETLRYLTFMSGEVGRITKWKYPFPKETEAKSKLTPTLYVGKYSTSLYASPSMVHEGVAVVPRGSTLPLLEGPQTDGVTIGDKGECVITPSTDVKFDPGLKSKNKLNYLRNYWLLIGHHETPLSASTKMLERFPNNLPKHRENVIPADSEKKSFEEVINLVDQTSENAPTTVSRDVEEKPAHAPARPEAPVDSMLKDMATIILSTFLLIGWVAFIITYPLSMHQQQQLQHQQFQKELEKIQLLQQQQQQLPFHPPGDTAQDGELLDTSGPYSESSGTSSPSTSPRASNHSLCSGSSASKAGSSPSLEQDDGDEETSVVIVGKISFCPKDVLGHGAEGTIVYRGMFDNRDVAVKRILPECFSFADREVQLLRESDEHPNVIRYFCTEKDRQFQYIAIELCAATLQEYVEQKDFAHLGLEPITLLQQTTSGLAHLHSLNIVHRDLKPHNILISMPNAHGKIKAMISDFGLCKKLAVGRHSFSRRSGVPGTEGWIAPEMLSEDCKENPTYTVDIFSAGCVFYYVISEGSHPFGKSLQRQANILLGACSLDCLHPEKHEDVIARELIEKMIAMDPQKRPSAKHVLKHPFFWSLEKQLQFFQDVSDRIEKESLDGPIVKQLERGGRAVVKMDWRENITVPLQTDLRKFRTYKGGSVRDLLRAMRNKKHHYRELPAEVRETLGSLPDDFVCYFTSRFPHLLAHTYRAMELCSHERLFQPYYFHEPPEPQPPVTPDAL
Chain of hIre1 (O75460 19-977): as above

| SMILES | Ire1 activity with human Ire1 alpha [2] | Ire1 activity with yeast Ire1 [3] | Ire1 activity [2] | further results |
| --- | --- | --- | --- | --- |
| CC(C)n1nc(Cc2cccc(NC(=O)Nc3cccc(C(F)(F)F)c3)c2)c2c(N)ncnc21 [AD36, 1-(3-((4-amino-1-isopropyl-1H-pyrazolo[3,4-d]pyrimidin-3-yl)methyl)phenyl)-3-(3-(trifluoromethyl)phenyl)urea] | 0.09575 | 1.05E−03 |  | Ire1 activity [1]: 0.000322 |
| CC(C)n1nc(-c2ccc(NC(=O)Nc3cccc(C(F)(F)F)c3)cc2)c2c(N)ncnc21 [AD57, 1-(4-(4-amino-1-isopropyl-1H-pyrazolo[3,4-d]pyrimidin-3-yl)phenyl)-3-(3-(trifluoromethyl)phenyl)urea] | 0.05508 | 3.26E−03 |  |  |
| Nc1ncnc2c1c(-c1ccc(NC(=O)Nc3cccc(C(F)(F)F)c3)cc1)nn2C1CCCC1 [AD60, 1-(4-(4-amino-1-cyclopentyl-1H-pyrazolo[3,4-d]pyrimidin-3-yl)phenyl)-3-(3-(trifluoromethyl)phenyl)urea] | 0.02258 | 2.42E−03 | 4.0180e−3 | Ire1 activity [1]: 4.04E−05; inhibition of hIre1 (in words) [2]: can inhibit; inhibition of yIre1 (in words) [3]: can inhibit |
| Nc1ncnc2c1c(-c1ccc(NC(=O)Nc3cccc(C(F)(F)F)c3)cc1)nn2CCCO [AD64] |  |  | 6.9280e−4 | Ki [4]: ~1 µM |
| Nc1ncnc2c1c(-c1ccc(NC(=O)c3cccc(C(F)(F)F)c3)cc1)nn2CCCO [AD65] |  |  |  | Ki [4]: ~30 µM |
| Nc1ncnc2c1c(-c1ccc(NC(=O)Nc3cccc(C(F)(F)F)c3)cc1)nn2[C@@H]1CCN(C(=O)Nc2cccc(C(F)(F)F)c2)C1 [AD73c] |  |  | 2.9310e−4 | rate suppression [4]: 100 fold; inhibition of XBP1 luciferase induction by thapsigargin (Tg) ([5]; Tg 600 nM): strongly inhibit; inhibition of XBP1 luciferase induction by tunicamycin (Tm) ([5]; Tm 2.5 ug/mL): strongly inhibit |
| Nc1ncnc2c1c(Cc1cccc(NC(=O)c3cccc(C(F)(F)F)c3)c1)nn2Cc1ccccc1 [BB5, N-(3-((4-amino-1-benzyl-1H-pyrazolo[3,4-d]pyrimidin-3-yl)methyl)phenyl)-3-(trifluoromethyl)benzamide] | 0.1247 | 5.00E−03 |  |  |
| Nc1ncnc2c1c(Cc1cccc(NC(=O)Nc3cccc(C(F)(F)F)c3)c1)nn2Cc1ccccc1 [BB6, 1-(3-((4-amino-1-benzyl-1H-pyrazolo[3,4-d]pyrimidin-3-yl)methyl)phenyl)-3-(3-(trifluoromethyl)phenyl)urea] | 0.1506 | 3.00E−03 |  |  |
| CNC(=O)c1cc(Oc2ccc(NC(=O)Nc3ccc(Cl)c(C(F)(F)F)c3)cc2)ccn1 [Sorafenib, reference compound] | 0.03645 | 0.0683 |  |  |

— US8980899B2, “Methods of inhibiting Ire1” (The Regents of the University of California, priority 2009, dated 2015)
